# In patent US20240327334A1, “Covalent Inhibitors As Antiviral Agents” (Enanta Pharmaceuticals, Inc., priority 2022, published 2024):
# How the values were obtained:
# [1] = target: SARS-CoV-2 Papain-like (PLpro) protease (Severe acute respiratory syndrome coronavirus 2, UniProt P0DTD1); assay: SARS-CoV-2 Papain-like (PLpro) protease biochemical enzyme inhibition assay (ubiquitin-fluorophore substrate, Ub-R110); conditions: Ub-R110 substrate; run in duplicate; read-out: PLpro IC50
# SARS-CoV-2 replicon = assay: microbe, parasite or virus in culture; type: cell-based; conditions: Severe acute respiratory syndrome coronavirus 2, Huh-7
Structure (SMILES),IC50 [1] [nM],EC50 (SARS-CoV-2 replicon) [nM]
N#CCNC(=O)C(=O)NCc1ccccc1C(=O)NC1(c2cc(Cl)cc(-c3cnn(C(F)F)c3)c2)CC1 [Example 456],< 100,1000 to 10000
COc1cccnc1C#CCNC(=O)C(=O)NCc1ccccc1C(=O)NC1(c2cc(F)cc(-c3cnn(C4CC4)c3)c2)CC1 [Example 261],< 100,< 1000
O=C(NCC#CC(=O)N1CCCO1)C(=O)NCc1ccccc1C(=O)NC1(c2cccc3ccccc23)CC1 [Example 526],< 100,< 1000
Cc1cccnc1C#CCNC(=O)C(=O)NCc1ccccc1C(=O)NC1(c2cc(F)cc(-c3cnn(C4CC4)c3)c2)CC1 [Example 262],< 100,< 1000
O=C(NCC#Cc1nccs1)C(=O)NCc1ccccc1C(=O)NC1(c2cccc3ccccc23)CC1 [Example 160],< 100,< 1000
C[C@@H](NC(=O)c1ccccc1CNC(=O)C(=O)NCC#Cc1nccs1)c1cc(F)cc(-c2cnn(C3CC3)c2)c1 [Example 491],< 100,< 1000
C[C@@H](C#Cc1ccc(C#N)cc1F)NC(=O)C(=O)NCc1ccccc1C(=O)NC1(c2cc(F)cc(-c3cnn(C4CC4)c3)c2)CC1 [Example 145],< 100,< 1000
O=C(NCC#Cc1nccs1)C(=O)NCc1ccccc1C(=O)NC1(c2cc(Cl)cc(-c3cc4ccccc4s3)c2)CC1 [Example 443],< 100,< 1000
CN(C)S(=O)(=O)n1cc(-c2cc(C3(NC(=O)c4ccccc4CNC(=O)C(=O)NCC#N)CC3)c3ccccc3c2)cn1 [Example 355],< 100,< 1000
O=C(NCC#Cc1nccs1)C(=O)NCc1ccccc1C(=O)NC1(c2cc(F)cc(-c3cnn(C4COC4)c3)c2)CC1 [Example 253],< 100,< 1000
C[C@@H](C#Cc1ncccc1CC#N)NC(=O)C(=O)NCc1ccccc1C(=O)NC1(c2ccc3nn(C)cc3c2)CC1 [Example 209],< 100,< 1000
C#CCNC(=O)C(=O)NCc1ccccc1C(=O)NC1(c2cc(Cl)cc(-c3ccccc3F)c2)CC1 [Example 444],< 100,< 1000
O=C(NCC#Cc1nccs1)C(=O)NCc1ccccc1C(=O)NC1(c2cc(F)cc(C(=O)Nc3ccc(F)cc3F)c2)CC1 [Example 82],< 100,< 1000
C#CCNC(=O)C(=O)NCc1ccccc1C(=O)NC1(c2cc(Cl)cc(-n3cccn3)c2)CC1 [Example 481],100 to 1000,1000 to 10000
N#CCNC(=O)C(=O)NCc1ccccc1C(=O)NC1(c2cc(-c3cnn(C4CC4)c3)nc3c2ccn3C2CC2)CC1 [Example 413],< 100,< 1000
O=C(NCC#Cc1ncccc1OC(F)(F)F)C(=O)NCc1ccccc1C(=O)NC1(c2ccc3ccccc3c2)CC1 [Example 201],< 100,< 1000
Cc1nn(C2CC2)c(C)c1-c1cc(Cl)cc(C2(NC(=O)c3ccccc3CNC(=O)C(=O)NCC#Cc3nccs3)CC2)c1 [Example 132],< 100,< 1000
CN1CCC1COc1ccc(CNC(=O)C(=O)NCC#N)c(C(=O)NC2(c3cccc4ccccc34)CC2)c1 (centres unmarked) [Example 331],< 100,< 1000
O=C(NCC#Cc1ccccn1)C(=O)NCc1ccccc1C(=O)NC1(c2cc(F)cc(-c3cnn(C4CC4)c3)c2)CC1 [Example 252],< 100,< 1000
CC(=O)N1CCN(c2cc(C3(NC(=O)c4ccccc4CNC(=O)C(=O)NCC#N)CC3)c3ccccc3c2)CC1 [Example 328],< 100,1000 to 10000

Structure (SMILES),IC50 [1] [nM],EC50 (SARS-CoV-2 replicon) [nM]
C[C@@H](C#Cc1ccc(C#N)c(F)c1)NC(=O)C(=O)NCc1ccccc1C(=O)NC1(c2ccc3nn(C)cc3c2)CC1 [Example 106],< 100,< 1000
COCc1ccc(-c2cc(C3(NC(=O)c4ccccc4CNC(=O)C(=O)NCC#N)CC3)c3ccccc3c2)s1 [Example 352],< 100,< 1000
N#CCNC(=O)C(=O)NCc1ccccc1C(=O)NC1(c2ccc(F)c3ccccc23)CC1 [Example 121],< 100,< 1000
N#CCNC(=O)C(=O)NCc1ccccc1C(=O)NC1(c2cccc3c(Br)cccc23)CC1 [Example 310],< 100,< 1000
C[C@@H](C#Cc1ncccc1OCC(F)F)NC(=O)C(=O)NCc1ccccc1C(=O)NC1(c2ccc3nn(C)cc3c2)CC1 [Example 212],100 to 1000,1000 to 10000
O=C(NCC#Cc1nccs1)C(=O)NCc1ccccc1C(=O)NC1(c2cnc3ccccc3c2)CC1 [Example 393],< 100,1000 to 10000
COC(=O)/C=C/CNC(=O)C(=O)NCc1cccc(F)c1C(=O)N[C@H](C)c1cccc2ccccc12 [Example 28],< 100,< 1000
O=C(NCC#Cc1ncc(F)s1)C(=O)NCc1ccccc1C(=O)NC1(c2cc(F)cc(-c3cnn(C4CC4)c3)c2)CC1 [Example 249],< 100,< 1000
CS(=O)(=O)/C=C/CNC(=O)C(=O)NCc1ccccc1C(=O)NC1(c2ccc3ccccc3c2)CC1 [Example 161],< 100,< 1000
O=C(NCC#Cc1nccs1)C(=O)NCc1ccccc1C(=O)NC1(c2cc3ccccc3cn2)CC1 [Example 394],< 100,< 1000
C#CCNC(=O)C(=O)NCc1ccccc1C(=O)NC1(c2ccc3c(cnn3C)c2)CC1 [Example 344],< 100,< 1000
N#CCNC(=O)C(=O)NCc1ccccc1C(=O)NC1(c2cc(-c3cncs3)cc3ccccc23)CC1 [Example 349],< 100,< 1000
Cc1nn(C)cc1-c1cc(F)cc(C2(NC(=O)c3ccccc3CNC(=O)C(=O)NCC#Cc3ncccc3Cl)CC2)c1 [Example 259],< 100,< 1000
O=C(NCC#Cc1nccs1)C(=O)NCc1ccccc1C(=O)NC1(c2cc(F)cc(-c3cnn(C4CC4)c3)c2F)CC1 [Example 313],< 100,< 1000
C[C@@H](C#Cc1nccs1)NC(=O)C(=O)NCc1ccccc1C(=O)NC1(c2cc(F)cc(-c3cnn(C4COC4)c3)c2)CC1 [Example 254],< 100,< 1000
C#CCNC(=O)C(=O)NCc1ccccc1C(=O)NC1(c2cc(F)c(F)c(-c3cnn(C4CC4)c3)c2)CC1 [Example 242],< 100,< 1000
C#CCNC(=O)C(=O)NCc1ccccc1C(=O)NC1(c2ccc(F)c(-c3cnn(C)c3)c2)CC1 [Example 232],< 100,< 1000
Cc1cccnc1C#C[C@H](C)NC(=O)C(=O)NCc1ccccc1C(=O)NC1(c2ccc3nn(C)cc3c2)CC1 [Example 274],< 100,< 1000
C#CCNC(=O)C(=O)NCc1ccc(C#N)cc1C(=O)NC1(c2ccc(F)c3ccccc23)CC1 [Example 53],< 100,< 1000
COc1cnc(C#CCNC(=O)C(=O)NCc2ccccc2C(=O)NC2(c3ccc4ccccc4c3)CC2)cn1 [Example 198],< 100,< 1000

Structure (SMILES),IC50 [1] [nM],EC50 (SARS-CoV-2 replicon) [nM]
C[C@@H](C#Cc1nccs1)NC(=O)C(=O)NCc1ccccc1C(=O)NC1(c2ccc3nn(CC(F)(F)F)cc3c2)CC1 [Example 323],< 100,< 1000
O=C(NCC#Cc1nccs1)C(=O)NCc1ccccc1C(=O)NC1(c2cc(Cl)cc(-c3ccccc3F)c2)CC1 [Example 442],< 100,< 1000
N#CCNC(=O)C(=O)NCc1ccccc1C(=O)NC1(c2cccc3nc(Cl)ccc23)CC1 [Example 386],< 100,< 1000
CC(C)(O)c1ncc(-c2cc(C3(NC(=O)c4ccccc4CNC(=O)C(=O)NCC#N)CC3)c3ccccc3c2)s1 [Example 287],< 100,< 1000
Cn1cc2cc(C3(NC(=O)c4ccccc4CNC(=O)C(=O)NCC4CN(C#N)C4)CC3)ccc2n1 [Example 432],100 to 1000,1000 to 10000
O=C(NC/C=C/C(=O)N1CC[C@H](O)C1)C(=O)NCc1ccccc1C(=O)NC1(c2cccc3ccccc23)CC1 [Example 555],100 to 1000,1000 to 10000
O=C(NCC#Cc1ncc(F)s1)C(=O)NCc1ccccc1C(=O)NC1(c2ccc3ccccc3c2)CC1 [Example 179],< 100,< 1000
CS(=O)(=O)/C=C/CNC(=O)C(=O)NCc1ccccc1C(=O)NC1(c2cccc3ccccc23)CC1 [Example 155],< 100,< 1000
CC(C)(O)CCc1cc(C2(NC(=O)c3ccccc3CNC(=O)C(=O)NCC#N)CC2)c2ccccc2c1 [Example 424],< 100,1000 to 10000
CON(C)C(=O)C#CCNC(=O)C(=O)NCc1ccccc1C(=O)NC1(c2cccc3ccccc23)CC1 [Example 524],< 100,< 1000
COC(=O)/C=C/CNC(=O)C(=O)NCc1ccccc1C(=O)N[C@H](C)c1cc(-c2cnn(C3CC3)c2)cc(C(F)(F)F)c1 [Example 459],< 100,1000 to 10000
N#CCNC(=O)C(=O)NCc1ccccc1C(=O)NC1(c2cc(-c3cnn(C4CC4)c3)cc3ncccc23)CC1 [Example 415],< 100,1000 to 10000
Cc1nn(C2CC2)c(C)c1-c1cc(Cl)cc(C2(NC(=O)c3ccccc3CNC(=O)C(=O)NCC#N)CC2)c1 [Example 130],< 100,1000 to 10000
C[C@@H](C#Cc1nccs1)NC(=O)C(=O)NCc1ccccc1C(=O)NC1(c2cc(Cl)cc(-c3nccs3)c2)CC1 [Example 494],< 100,< 1000
O=C(NCC#Cc1nccs1)C(=O)NCc1ccccc1C(=O)NC1(c2cccc(-c3cnn(C4CC4)c3)c2Cl)CC1 [Example 385],< 100,< 1000
N#CCNC(=O)C(=O)NCc1ccccc1C(=O)NC1(c2cc(-c3cn(-c4ccccn4)nn3)cc3ccccc23)CC1 [Example 427],< 100,< 1000
O=C(NCC#Cc1nccs1)C(=O)NCc1ccccc1C(=O)NC1(c2cc(F)cc(-c3cnn(C4CC4)c3)c2)CC1 [Example 243],< 100,< 1000
N#Cc1ccccc1C#CCNC(=O)C(=O)NCc1ccccc1C(=O)NC1(c2ccc3ccccc3c2)CC1 [Example 94],< 100,< 1000
